Experimental data as given in the NIST ThermoML archive (doi:10.1016/j.jct.2016.10.023).
Numbers after ± are expanded uncertainties.

Assay: xn = mol fraction of the nth substance listed
Settings: Constant-volume piezometry

Compound `CCCCC` [pentane] + CCCO has a mass density (553.15 K, 10864 kPa, Fluid (supercritical or subcritical phases), x1 = 0.9) of 311.86 ± 1.6 kg/m3, a mass density (553.15 K, 11147 kPa, Fluid (supercritical or subcritical phases), x1 = 0.2) of 390.67 ± 2 kg/m3 and a mass density (553.15 K, 11334 kPa, Fluid (supercritical or subcritical phases), x1 = 0.8) of 314.89 ± 1.6 kg/m3. The mass density (553.15 K, 12137 kPa, Fluid (supercritical or subcritical phases), x1 = 0.9) was 333.53 ± 1.7 kg/m3, the mass density (553.15 K, 12374 kPa, Fluid (supercritical or subcritical phases), x1 = 0.8) was 333.35 ± 1.7 kg/m3 and the mass density (553.15 K, 13032 kPa, Fluid (supercritical or subcritical phases), x1 = 0.2) was 418.04 ± 2.1 kg/m3. The mass density (553.15 K, 13118 kPa, Fluid (supercritical or subcritical phases), x1 = 0.8) was 344.85 ± 1.7 kg/m3, the mass density (553.15 K, 13951 kPa, Fluid (supercritical or subcritical phases), x1 = 0.9) was 353.59 ± 1.8 kg/m3 and the mass density (553.15 K, 14669 kPa, Fluid (supercritical or subcritical phases), x1 = 0.8) was 361.39 ± 1.8 kg/m3. It also gave a mass density (553.15 K, 18451 kPa, Fluid (supercritical or subcritical phases), x1 = 0.2) of 469.6 ± 2.4 kg/m3, a mass density (553.15 K, 20863 kPa, Fluid (supercritical or subcritical phases), x1 = 0.9) of 406.66 ± 2 kg/m3 and a mass density (553.15 K, 21933 kPa, Fluid (supercritical or subcritical phases), x1 = 0.8) of 417.56 ± 2.1 kg/m3. The mass density (553.15 K, 25921 kPa, Fluid (supercritical or subcritical phases), x1 = 0.2) was 508.72 ± 2.6 kg/m3, the mass density (553.15 K, 34331 kPa, Fluid (supercritical or subcritical phases), x1 = 0.8) was 465.95 ± 2.4 kg/m3 and the mass density (553.15 K, 37494 kPa, Fluid (supercritical or subcritical phases), x1 = 0.2) was 546.06 ± 2.8 kg/m3. For the same compound, the mass density (563.15 K, 1429 kPa, Gas, x1 = 0.8) was 22.48 ± 0.07 kg/m3, the mass density (563.15 K, 1719 kPa, Gas, x1 = 0.2) was 24.88 ± 0.08 kg/m3 and the mass density (563.15 K, 2200 kPa, Gas, x1 = 0.8) was 36.62 ± 0.11 kg/m3. For the same compound, the mass density (563.15 K, 3253 kPa, Gas, x1 = 0.8) was 58.3 ± 0.18 kg/m3, the mass density (563.15 K, 3644 kPa, Gas, x1 = 0.2) was 52.9 ± 0.16 kg/m3 and the mass density (563.15 K, 3914 kPa, Fluid (supercritical or subcritical phases), x1 = 0.8) was 73.65 ± 0.37 kg/m3. For the same compound, the mass density (563.15 K, 4188 kPa, Fluid (supercritical or subcritical phases), x1 = 0.9) was 83.22 ± 0.42 kg/m3, the mass density (563.15 K, 4893 kPa, Fluid (supercritical or subcritical phases), x1 = 0.2) was 91.24 ± 0.46 kg/m3 and the mass density (563.15 K, 5140 kPa, Fluid (supercritical or subcritical phases), x1 = 0.8) was 106.2 ± 0.54 kg/m3. For the same compound, the mass density (563.15 K, 5522 kPa, Fluid (supercritical or subcritical phases), x1 = 0.9) was 123.11 ± 0.62 kg/m3, the mass density (563.15 K, 5594 kPa, Fluid (supercritical or subcritical phases), x1 = 0.2) was 114.13 ± 0.58 kg/m3 and the mass density (563.15 K, 5876 kPa, Fluid (supercritical or subcritical phases), x1 = 0.9) was 133.86 ± 0.68 kg/m3. For the same compound, the mass density (563.15 K, 6362 kPa, Fluid (supercritical or subcritical phases), x1 = 0.8) was 140.03 ± 0.71 kg/m3, the mass density (563.15 K, 6504 kPa, Fluid (supercritical or subcritical phases), x1 = 0.2) was 150.05 ± 0.77 kg/m3 and the mass density (563.15 K, 6690 kPa, Fluid (supercritical or subcritical phases), x1 = 0.9) was 163.64 ± 0.83 kg/m3. The mass density (563.15 K, 6728 kPa, Fluid (supercritical or subcritical phases), x1 = 0.8) was 155.74 ± 0.79 kg/m3, the mass density (563.15 K, 6993 kPa, Fluid (supercritical or subcritical phases), x1 = 0.2) was 175.27 ± 0.9 kg/m3 and the mass density (563.15 K, 7120 kPa, Fluid (supercritical or subcritical phases), x1 = 0.8) was 169.45 ± 0.86 kg/m3. It also gave a mass density (563.15 K, 7244 kPa, Fluid (supercritical or subcritical phases), x1 = 0.2) of 189.26 ± 0.98 kg/m3, a mass density (563.15 K, 7275 kPa, Fluid (supercritical or subcritical phases), x1 = 0.8) of 175.68 ± 0.9 kg/m3 and a mass density (563.15 K, 7389 kPa, Fluid (supercritical or subcritical phases), x1 = 0.8) of 180.47 ± 0.92 kg/m3. It also gave a mass density (563.15 K, 7397 kPa, Fluid (supercritical or subcritical phases), x1 = 0.9) of 189.08 ± 0.96 kg/m3, a mass density (563.15 K, 7718 kPa, Fluid (supercritical or subcritical phases), x1 = 0.2) of 219.66 ± 1.1 kg/m3 and a mass density (563.15 K, 7728 kPa, Fluid (supercritical or subcritical phases), x1 = 0.8) of 192.78 ± 0.98 kg/m3. The mass density (563.15 K, 7738 kPa, Fluid (supercritical or subcritical phases), x1 = 0.9) was 201.98 ± 1 kg/m3, the mass density (563.15 K, 8148 kPa, Fluid (supercritical or subcritical phases), x1 = 0.2) was 244.99 ± 1.3 kg/m3 and the mass density (563.15 K, 8285 kPa, Fluid (supercritical or subcritical phases), x1 = 0.9) was 220.25 ± 1.1 kg/m3. The mass density (563.15 K, 8310 kPa, Fluid (supercritical or subcritical phases), x1 = 0.8) was 213.43 ± 1.1 kg/m3, the mass density (563.15 K, 8376 kPa, Fluid (supercritical or subcritical phases), x1 = 0.2) was 258.68 ± 1.3 kg/m3 and the mass density (563.15 K, 8439 kPa, Fluid (supercritical or subcritical phases), x1 = 0.2) was 262.38 ± 1.3 kg/m3. It also gave a mass density (563.15 K, 8483 kPa, Fluid (supercritical or subcritical phases), x1 = 0.8) of 219.19 ± 1.1 kg/m3, a mass density (563.15 K, 8609 kPa, Fluid (supercritical or subcritical phases), x1 = 0.2) of 271.82 ± 1.4 kg/m3 and a mass density (563.15 K, 8640 kPa, Fluid (supercritical or subcritical phases), x1 = 0.9) of 232.6 ± 1.2 kg/m3. The mass density (563.15 K, 8748 kPa, Fluid (supercritical or subcritical phases), x1 = 0.9) was 236.06 ± 1.2 kg/m3, the mass density (563.15 K, 8876 kPa, Fluid (supercritical or subcritical phases), x1 = 0.9) was 240.45 ± 1.2 kg/m3 and the mass density (563.15 K, 8904 kPa, Fluid (supercritical or subcritical phases), x1 = 0.8) was 234.24 ± 1.2 kg/m3. For the same compound, the mass density (563.15 K, 8945 kPa, Fluid (supercritical or subcritical phases), x1 = 0.2) was 289.96 ± 1.5 kg/m3, the mass density (563.15 K, 8965 kPa, Fluid (supercritical or subcritical phases), x1 = 0.9) was 243.76 ± 1.2 kg/m3 and the mass density (563.15 K, 9207 kPa, Fluid (supercritical or subcritical phases), x1 = 0.8) was 244.86 ± 1.2 kg/m3. For the same compound, the mass density (563.15 K, 9294 kPa, Fluid (supercritical or subcritical phases), x1 = 0.2) was 306.21 ± 1.6 kg/m3, the mass density (563.15 K, 9393 kPa, Fluid (supercritical or subcritical phases), x1 = 0.2) was 310.43 ± 1.6 kg/m3 and the mass density (563.15 K, 9613 kPa, Fluid (supercritical or subcritical phases), x1 = 0.2) was 318.13 ± 1.6 kg/m3. It also gave a mass density (563.15 K, 9648 kPa, Fluid (supercritical or subcritical phases), x1 = 0.8) of 258.06 ± 1.3 kg/m3, a mass density (563.15 K, 10165 kPa, Fluid (supercritical or subcritical phases), x1 = 0.8) of 271.99 ± 1.4 kg/m3 and a mass density (563.15 K, 10334 kPa, Fluid (supercritical or subcritical phases), x1 = 0.2) of 340.56 ± 1.7 kg/m3. For the same compound, the mass density (563.15 K, 10363 kPa, Fluid (supercritical or subcritical phases), x1 = 0.9) was 281.45 ± 1.4 kg/m3, the mass density (563.15 K, 10433 kPa, Fluid (supercritical or subcritical phases), x1 = 0.2) was 343.35 ± 1.7 kg/m3 and the mass density (563.15 K, 10875 kPa, Fluid (supercritical or subcritical phases), x1 = 0.8) was 287.81 ± 1.4 kg/m3. For the same compound, the mass density (563.15 K, 11127 kPa, Fluid (supercritical or subcritical phases), x1 = 0.9) was 301.08 ± 1.5 kg/m3, the mass density (563.15 K, 11345 kPa, Fluid (supercritical or subcritical phases), x1 = 0.8) was 298.6 ± 1.5 kg/m3 and the mass density (563.15 K, 11776 kPa, Fluid (supercritical or subcritical phases), x1 = 0.9) was 311.7 ± 1.6 kg/m3. For the same compound, the mass density (563.15 K, 11942 kPa, Fluid (supercritical or subcritical phases), x1 = 0.2) was 377.85 ± 1.9 kg/m3, the mass density (563.15 K, 12196 kPa, Fluid (supercritical or subcritical phases), x1 = 0.2) was 382.64 ± 1.9 kg/m3 and the mass density (563.15 K, 12285 kPa, Fluid (supercritical or subcritical phases), x1 = 0.8) was 314.73 ± 1.6 kg/m3. For the same compound, the mass density (563.15 K, 12687 kPa, Fluid (supercritical or subcritical phases), x1 = 0.2) was 390.46 ± 2 kg/m3, the mass density (563.15 K, 13176 kPa, Fluid (supercritical or subcritical phases), x1 = 0.9) was 333.36 ± 1.7 kg/m3 and the mass density (563.15 K, 13452 kPa, Fluid (supercritical or subcritical phases), x1 = 0.8) was 333.18 ± 1.7 kg/m3. The mass density (563.15 K, 14255 kPa, Fluid (supercritical or subcritical phases), x1 = 0.8) was 344.68 ± 1.7 kg/m3 and the mass density (563.15 K, 14845 kPa, Fluid (supercritical or subcritical phases), x1 = 0.2) was 417.82 ± 2.1 kg/m3.
